Some test systems named below: HCC-2998 colon; EKVX NSCLC; HOP-62 NSCLC; SF-539 CNS; OVCAR-3 ovarian; TK-10 renal; ACHN renal; HL-60(TB) leukemia.
Experiment in all cases: NCI anticancer screen, dose series, 48 h

Values joined by “and” are separate entries in the source; they are usually repeats but may differ in a detail not shown here. Equal values may be shown once.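 Assay format: 96-well plates, 48-hour exposure. At the GI50, growth is halved. TGI: concentration producing complete growth inhibition.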

Regarding `CN(CCCCCCCCNc1ccnc2ccccc12)Cc1ccc(-c2ccc(-c3ccc(C#N)cc3)s2)cc1`, the GI50 in the assay with HCC-2998 colon is 0.275 µM; with EKVX NSCLC, 0.827 µM; with HOP-62 NSCLC, 0.685 µM; in the assay with SF-539 CNS, 0.797 µM; in the assay with OVCAR-3 ovarian it was 0.647 µM; with TK-10 renal, 1.57 µM. For the same molecule, the GI50 is 1.28 µM with ACHN renal and 1.15 µM in the assay with HL-60(TB) leukemia. The TGI in the assay on HCC-2998 colon turned out to be 1.04 µM; in the assay with EKVX NSCLC, 2.28 µM; with HOP-62 NSCLC, 2.5 µM; with SF-539 CNS, 2.23 µM; in the assay with OVCAR-3 ovarian it was 2.07 µM; in the assay with TK-10 renal, 3.18 µM. In addition, the results for the TGI with ACHN renal and in the assay with HL-60(TB) leukemia were 2.55 µM and 2.93 µM, respectively.
For `Oc1ccccc1/C=N\Nc1ccccc1`, the GI50 in the assay with HCC-2998 colon is 3.45 µM; in the assay on EKVX NSCLC, 12.9 µM; with HOP-62 NSCLC it was 21.9 µM; in the assay with SF-539 CNS, 2.18 µM; in the assay with OVCAR-3 ovarian it was 10.4 µM; with TK-10 renal, 24.9 µM. The GI50 in the assay with ACHN renal is 2.84 µM; with HL-60(TB) leukemia, 1.31 µM. For the same molecule, the TGI is 15.5 µM with HCC-2998 colon; above 100 µM with EKVX NSCLC; above 100 µM in the assay on HOP-62 NSCLC; 5.59 µM with SF-539 CNS; above 100 µM in the assay with OVCAR-3 ovarian; above 100 µM with TK-10 renal. Further, the TGI came out at 62.2 µM with ACHN renal and 4.8 µM with HL-60(TB) leukemia.
With `COc1ccc(C2CC(c3ccc4ccccc4c3)=NN2c2nc(O)c(C3=c4cc(Cl)ccc4=NC3=O)s2)cc1` (stereo unspecified), the GI50 is 0.0216 µM and < 0.005 µM with HCC-2998 colon; 0.0313 µM and < 0.005 µM in the assay on EKVX NSCLC; 0.025 µM and < 0.005 µM in the assay on HOP-62 NSCLC; 0.0195 µM and < 0.005 µM in the assay on SF-539 CNS; 0.0202 µM and < 0.005 µM in the assay with OVCAR-3 ovarian; 0.0195 µM and < 0.005 µM with TK-10 renal. In addition, the GI50 is 0.025 µM and < 0.005 µM in the assay on ACHN renal; 0.171 µM in the assay with HL-60(TB) leukemia. Further, the TGI with SF-539 CNS was 0.0402 µM and < 0.005 µM; in the assay on OVCAR-3 ovarian it was 0.0396 µM and < 0.005 µM.
Consider `O=C1c2c(c3c4ccccc4n(CCCCCCN4CCOCC4)c3c3[nH]c4ccccc4c23)C(=O)N1O`, for which the GI50 is 9.6 µM in the assay with HCC-2998 colon; above 43.1 µM in the assay with EKVX NSCLC; 18.2 µM in the assay with HOP-62 NSCLC; 1.9 µM in the assay with SF-539 CNS; 16.3 µM in the assay with OVCAR-3 ovarian; 26.2 µM in the assay with TK-10 renal. Further, the GI50 was 4.14 µM in the assay on ACHN renal and 2.49 µM with HL-60(TB) leukemia. Besides, the TGI in the assay with HCC-2998 colon was 32.1 µM; in the assay on EKVX NSCLC it was above 82.5 µM; in the assay with HOP-62 NSCLC it was 55.2 µM; with SF-539 CNS, 4.03 µM; in the assay on OVCAR-3 ovarian it was 33.8 µM; with TK-10 renal it was 54.8 µM. Also, the TGI in the assay with HL-60(TB) leukemia worked out at 8.22 µM.
For `CCCCNP1(NCCCC)=NP(NCCCC)(NCCCC)=NP(NCCCC)(NCCCC)=NP(NCCCC)(NCCCC)=N1`, the GI50 with HCC-2998 colon was 0.304 µM; in the assay with EKVX NSCLC it was 0.25 µM; in the assay on HOP-62 NSCLC, 1.85 µM; with SF-539 CNS it was 2.89 µM; in the assay with OVCAR-3 ovarian, 0.243 µM; in the assay on TK-10 renal it was 0.933 µM. Moreover, the GI50 was 2.5 µM in the assay on ACHN renal and 0.098 µM in the assay on HL-60(TB) leukemia. In addition, the TGI was 3.7 µM in the assay on HCC-2998 colon; 6.17 µM in the assay on EKVX NSCLC; 6.25 µM in the assay with HOP-62 NSCLC; 8.55 µM in the assay with SF-539 CNS; 0.871 µM in the assay on OVCAR-3 ovarian; 13 µM in the assay with TK-10 renal. Moreover, the TGI is above 32.9 µM in the assay with ACHN renal and 0.888 µM with HL-60(TB) leukemia.
As for `CC1OC(OC2C(O)C(OCCc3ccc(O)c(O)c3)OC(CO)C2OC(=O)/C=C/c2ccc(O)c(O)c2)C(O)C(O)C1O` (stereo unspecified), the GI50 with HCC-2998 colon is 19 µM; in the assay with EKVX NSCLC, 27.6 µM; with HOP-62 NSCLC it was above 100 µM; in the assay on SF-539 CNS, 22.9 µM; in the assay on OVCAR-3 ovarian, 27.4 µM; in the assay on TK-10 renal, above 100 µM. The GI50 in the assay with ACHN renal was 18.9 µM; in the assay on HL-60(TB) leukemia, 14.9 µM. The TGI is 35.6 µM in the assay with HCC-2998 colon; above 100 µM in the assay on EKVX NSCLC; above 100 µM with HOP-62 NSCLC; 40.9 µM with SF-539 CNS; 79.7 µM in the assay with OVCAR-3 ovarian; above 100 µM in the assay on TK-10 renal. The TGI was 37 µM in the assay with ACHN renal and above 100 µM in the assay on HL-60(TB) leukemia.
As to `Cn1c2ccccc2c2c(=O)n(CCCC(=O)NCCc3cnc[nH]3)c3c(-c4ccccc4)nnn3c21`, the GI50 is 9.51 µM in the assay on HCC-2998 colon; 10 µM in the assay on EKVX NSCLC; 7.67 µM in the assay on HOP-62 NSCLC; 9.26 µM in the assay with SF-539 CNS; 8.39 µM in the assay with OVCAR-3 ovarian; 4.8 µM in the assay on TK-10 renal. The GI50 with ACHN renal is 9.74 µM; in the assay with HL-60(TB) leukemia it was 11.8 µM. Besides, the TGI came out at 19.7 µM in the assay with HCC-2998 colon; 23.9 µM with EKVX NSCLC; 16.9 µM in the assay on HOP-62 NSCLC; 17.2 µM in the assay with SF-539 CNS; 16.3 µM in the assay with OVCAR-3 ovarian; 11.5 µM in the assay with TK-10 renal. The TGI with ACHN renal came out at 17.9 µM; in the assay on HL-60(TB) leukemia, 28.4 µM.
For the molecule `Cc1c(C(=O)/C=C/c2ccc(Cl)cc2)nnn1-c1ccnc2c(C(F)(F)F)cccc12`, the GI50 in the assay on HCC-2998 colon is 72.8 µM; in the assay with EKVX NSCLC, 76.5 µM; with HOP-62 NSCLC, 22 µM; with SF-539 CNS it was 51.9 µM; in the assay on OVCAR-3 ovarian, 36.6 µM; with TK-10 renal it was 34.9 µM. Moreover, the GI50 was 51.6 µM in the assay on ACHN renal and 25.9 µM in the assay with HL-60(TB) leukemia. Besides, the TGI in the assay on HCC-2998 colon is above 100 µM; in the assay with EKVX NSCLC it was above 100 µM; in the assay with HOP-62 NSCLC, 47.8 µM; with SF-539 CNS it was above 100 µM; in the assay on OVCAR-3 ovarian it was above 100 µM; in the assay on TK-10 renal it was above 100 µM. The TGI in the assay with ACHN renal and in the assay with HL-60(TB) leukemia was above 100 µM in each case.
For `O=C1/C=C/[C@@H](O)[C@@H]2C[C@@H](O)C[C@H]2/C=C/CCC[C@H](CCc2ccc(NC(=S)Nc3ccc4c(c3)C(=O)OC43c4ccc(O)cc4Oc4cc(O)ccc43)cc2)O1`, the GI50 in the assay with HCC-2998 colon is 0.302 µM; in the assay with EKVX NSCLC it was 0.409 µM; in the assay with HOP-62 NSCLC, 0.518 µM; in the assay with SF-539 CNS, 0.724 µM; in the assay on OVCAR-3 ovarian it was 0.317 µM; in the assay on TK-10 renal it was 0.608 µM. The GI50 was 0.803 µM in the assay on ACHN renal and 4.51 µM in the assay with HL-60(TB) leukemia. Also, the TGI with EKVX NSCLC is above 100 µM; in the assay with HOP-62 NSCLC it was above 100 µM; in the assay with SF-539 CNS it was above 100 µM; in the assay on OVCAR-3 ovarian, 0.862 µM; in the assay with TK-10 renal it was 12.6 µM; in the assay with ACHN renal, above 100 µM. For the same molecule, the TGI in the assay on HL-60(TB) leukemia is above 100 µM.
